# Measurements published in PubChem BioAssay AID2060604 (Molecular Pharmacology Branch, DTP, NCI, 2025).
# pIC50: −log10 of the molar value.
# System: 379773-124-R-J2-PDC complex spheroids, viability % test/control
# Assay: Anticancer human tumor 379773-124-R-J2-PDC patient-derived endometrial carcinoma cell line growth inhibition [CLK]
# Conditions: for pIC50: curve of first compound; for viability, T/C: stronger effect = lower value
# Source text: A high-throughput screen of multi-cell type tumor spheroids was designed to identify active combinations of […] and targeted small molecules. Complex spheroids include a stromal component modeled by human endothelial cells (HUVEC) and fibroblasts modeled by human mesenchymal stem cells (MSCs). The concentration ranges selected for each drug and investigational agent were based upon clinically achievable concentrations if the clinical Cmax of the agent was known.
# Compounds. The drugs and investigational agents: cirtuvivint (SM08502; NSC835563), CC-671 (NSC850746), vemurafenib (NSC761431), tapotoclax (NSC804041), sotorasib (NSC818433), adagrasib (NSC831453), MRTX-1133 (NSC836407), BAY2416964 (NSC825713), copanlisib (NSC816437), inavolisib (NSC800729), abemaciclib (NSC768073), osimertinib (NSC779217), entinostat (NSC756642), eltanexor (KPT-8602, NSC794443), venetoclax (NSC766270), ceralasertib (NSC777638), bortezomib (NSC756655), olaparib (NSC753686), talazoparib (NSC767125), alisertib (NSC759677), peposertib (NSC802822), gemcitabine (NSC613327), 5-fluorouracil (NSC19893), SN-38 (NSC673596), oxaliplatin (NSC266046), paclitaxel (NSC125973), and doxorubicin (NSC123127), were obtained from the National Cancer Institute (NCI) Developmental Therapeutics Program Chemical Repository. The FDA-approved anticancer drug set is available from the Developmental Therapeutics Program at https://dtp.cancer.gov/organization/dscb/obtaining/available plates.htm. […] The stock solutions were prepared in dimethyl sulfoxide (DMSO, Sigma-Aldrich, St. Louis, MO, cat. D2650), except for the platinum complexes which were prepared in saline (Quality Biological, Gaithersburg, MD, cat. 114-055-101), at 800-fold the tested concentration and stored at -70 degrees C prior to their use. All drugs and investigational agents were tested over a range starting from a high concentration at or near the clinical Cmax and decreasing in half-log increments. If the clinical Cmax for an agent had not been determined, the highest concentration tested was 10 microM.
# Cell Culture. All cells were maintained in an incubator at 37 degrees C and 5% CO2 with 95% humidity. The PDC lines were cultured according to standard operating procedures established by the NCI PDMR. Briefly, all PDCs were thawed and cultured in Matrigel-coated flasks prepared with a working solution of 1X Ham's F-12 nutrient mix, without supplementation (Invitrogen, Waltham, MA, cat. 11765054), 100 U/mL penicillin-streptomycin (Invitrogen, cat. 15140122), and 2.5% Matrigel (Corning Inc., Corning, NY, cat. 354248) for the first three passages. The 947758-054-R-J2-PDC line was cultured in 6B/Colon 1A media, which includes advanced DMEM/F-12 (Thermo Fisher Scientific, cat. 12634028), 10 mM HEPES (Thermo Fisher Scientific, cat. 15630080), 1X GlutaMAX supplement (Thermo Fisher Scientific, cat. 35050061), 0.1 mg/mL primocin (InvivoGen, cat. ant-pm-2), 10% defined fetal bovine serum, heat inactivated (HyClone Laboratories Inc., cat. SH30070.03HI), 1.25 mM N-Acetyl-L-cysteine (Sigma-Aldrich, cat. A9165), 10 mM nicotinamide (Sigma-Aldrich, cat. N0636), 1X B-27 supplement (Thermo Fisher Scientific, cat. 17504044), 1X N-2 supplement (Thermo Fisher Scientific, cat. 17502048), and 10 microM Y-27632 dihydrochloride (Tocris Bioscience, cat. 1254). The 876862-298-R-J1-PDC was cultured in 6E media, which includes all 6B/Colon 1A media components plus 50% L-WRN conditioned media (ATCC, cat. CRL-3276), 50 ng/mL recombinant human EGF recombinant protein (hEGF; Thermo Fisher Scientific, cat. PHG0311), 10 ng/mL recombinant human fibroblast growth factor 10 (hGFG-10; PeproTech, cat. 100-26), 1 ng/mL recombinant human fibroblast growth factor 2 (hFGF-2; PeproTech, cat. 100-18B), and 1 µM prostaglandin E2 (PGE2; Tocris, cat. 2296). The 227483-062-R1-J1-PDC line was cultured in Panc media, containing all 6E components except hFGF-2, with the addition of 500 nM SB-431542 (Selleckchem, cat. S1067) and 10 nM gastrin (Tocris, cat. 3006). […]
# 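Also: compound exposure lasted seven days before the viability readout.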
# 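For viability, T/C in this document: 100% = DMSO vehicle control wells.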
smiles,measurement,setting,value
C=CC(=O)N1CCN(c2nc(=O)n(-c3c(C)ccnc3C(C)C)c3nc(-c4c(O)cccc4F)c(F)cc23)C(C)C1 (configuration not stated) + CN1CCN(c2cc(C(=O)Nc3cc4cc(-c5cnn(C)c5)ccc4cn3)ccn2)CC1,pIC50,second compound 0.0316 µM,< 5.00
same,pIC50,second compound 0.1 µM,< 5.00
same,pIC50,second compound 0.316 µM,> 7.50
same,pIC50,second compound 1 µM,> 7.50
same,pIC50,second compound 3.16 µM,> 7.50
same,pIC50,second compound 10 µM,> 7.50
same,"viability, T/C","second compound 0.0316 µM, first compound 0.0316 µM",105%
same,"viability, T/C","second compound 0.0316 µM, first compound 0.1 µM",92.5%
same,"viability, T/C","second compound 0.0316 µM, first compound 0.316 µM",91.2%
same,"viability, T/C","second compound 0.0316 µM, first compound 1 µM",94.4%
same,"viability, T/C","second compound 0.0316 µM, first compound 3.16 µM",84.6%
same,"viability, T/C","second compound 0.0316 µM, first compound 10 µM",75.2%
same,"viability, T/C","second compound 0.1 µM, first compound 0.0316 µM",85.5%
same,"viability, T/C","second compound 0.1 µM, first compound 0.1 µM",79.2%
same,"viability, T/C","second compound 0.1 µM, first compound 0.316 µM",72.5%
same,"viability, T/C","second compound 0.1 µM, first compound 1 µM",88.1%
same,"viability, T/C","second compound 0.1 µM, first compound 3.16 µM",84.2%
same,"viability, T/C","second compound 0.1 µM, first compound 10 µM",62.5%
same,"viability, T/C","second compound 0.316 µM, first compound 0.0316 µM",29.6%
same,"viability, T/C","second compound 0.316 µM, first compound 0.1 µM",32.8%
same,"viability, T/C","second compound 0.316 µM, first compound 0.316 µM",29.3%
same,"viability, T/C","second compound 0.316 µM, first compound 1 µM",29.2%
same,"viability, T/C","second compound 0.316 µM, first compound 3.16 µM",38.5%
same,"viability, T/C","second compound 0.316 µM, first compound 10 µM",13.2%
same,"viability, T/C","second compound 1 µM, first compound 0.0316 µM",0.15%
same,"viability, T/C","second compound 1 µM, first compound 0.1 µM",3.06%
same,"viability, T/C","second compound 1 µM, first compound 0.316 µM",0.25%
same,"viability, T/C","second compound 1 µM, first compound 1 µM",1.12%
same,"viability, T/C","second compound 1 µM, first compound 3.16 µM",1.01%
same,"viability, T/C","second compound 1 µM, first compound 10 µM",0.17%
same,"viability, T/C","second compound 3.16 µM, first compound 0.0316 µM",0.18%
same,"viability, T/C","second compound 3.16 µM, first compound 0.1 µM",0.13%
same,"viability, T/C","second compound 3.16 µM, first compound 0.316 µM",0.13%
same,"viability, T/C","second compound 3.16 µM, first compound 1 µM",0.34%
same,"viability, T/C","second compound 3.16 µM, first compound 3.16 µM",1.33%
same,"viability, T/C","second compound 3.16 µM, first compound 10 µM",1.3%
same,"viability, T/C","second compound 10 µM, first compound 0.0316 µM",0.12%
same,"viability, T/C","second compound 10 µM, first compound 0.1 µM",0.54%
same,"viability, T/C","second compound 10 µM, first compound 0.316 µM",1.42%
same,"viability, T/C","second compound 10 µM, first compound 1 µM",0.17%
same,"viability, T/C","second compound 10 µM, first compound 3.16 µM",1.04%
same,"viability, T/C","second compound 10 µM, first compound 10 µM",0.5%
